The target of one assay is Histamine H3 receptor (Homo sapiens, UniProt Q9Y5N1).
Assay [1] deals with T1, 5-hydroxytryptamine receptor 1A (Homo sapiens, UniProt P08908).
T1 sequence (P08908 whole entry): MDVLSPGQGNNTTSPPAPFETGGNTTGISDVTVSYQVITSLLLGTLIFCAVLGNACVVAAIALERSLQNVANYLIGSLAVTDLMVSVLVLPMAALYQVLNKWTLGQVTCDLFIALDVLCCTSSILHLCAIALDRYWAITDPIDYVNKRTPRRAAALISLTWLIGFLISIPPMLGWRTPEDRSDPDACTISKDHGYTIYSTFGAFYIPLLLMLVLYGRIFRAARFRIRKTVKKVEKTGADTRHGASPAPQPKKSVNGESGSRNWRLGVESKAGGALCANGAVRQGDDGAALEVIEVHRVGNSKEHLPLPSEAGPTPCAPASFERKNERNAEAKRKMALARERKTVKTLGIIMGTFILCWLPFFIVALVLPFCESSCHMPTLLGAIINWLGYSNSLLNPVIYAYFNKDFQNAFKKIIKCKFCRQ

Assay [2] addresses T2, Alpha-2C adrenergic receptor (Homo sapiens, UniProt P18825).
T2 sequence (P18825 whole entry): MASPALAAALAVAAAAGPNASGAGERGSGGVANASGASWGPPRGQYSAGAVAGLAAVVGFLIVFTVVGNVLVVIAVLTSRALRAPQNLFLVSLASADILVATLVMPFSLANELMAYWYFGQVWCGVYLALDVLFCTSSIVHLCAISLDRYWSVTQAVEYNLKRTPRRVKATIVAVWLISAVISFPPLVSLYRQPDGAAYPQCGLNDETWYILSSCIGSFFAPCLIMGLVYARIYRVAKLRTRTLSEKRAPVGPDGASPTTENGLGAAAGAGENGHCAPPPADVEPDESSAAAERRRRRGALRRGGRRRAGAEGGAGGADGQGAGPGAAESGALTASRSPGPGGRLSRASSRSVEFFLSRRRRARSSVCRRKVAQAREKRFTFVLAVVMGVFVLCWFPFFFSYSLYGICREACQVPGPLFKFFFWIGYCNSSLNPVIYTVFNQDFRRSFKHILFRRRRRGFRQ
In kind it is functional.

Assay [3] deals with T3, Amine oxidase [flavin-containing] A (Homo sapiens, UniProt P21397).
T3 sequence (P21397 whole entry): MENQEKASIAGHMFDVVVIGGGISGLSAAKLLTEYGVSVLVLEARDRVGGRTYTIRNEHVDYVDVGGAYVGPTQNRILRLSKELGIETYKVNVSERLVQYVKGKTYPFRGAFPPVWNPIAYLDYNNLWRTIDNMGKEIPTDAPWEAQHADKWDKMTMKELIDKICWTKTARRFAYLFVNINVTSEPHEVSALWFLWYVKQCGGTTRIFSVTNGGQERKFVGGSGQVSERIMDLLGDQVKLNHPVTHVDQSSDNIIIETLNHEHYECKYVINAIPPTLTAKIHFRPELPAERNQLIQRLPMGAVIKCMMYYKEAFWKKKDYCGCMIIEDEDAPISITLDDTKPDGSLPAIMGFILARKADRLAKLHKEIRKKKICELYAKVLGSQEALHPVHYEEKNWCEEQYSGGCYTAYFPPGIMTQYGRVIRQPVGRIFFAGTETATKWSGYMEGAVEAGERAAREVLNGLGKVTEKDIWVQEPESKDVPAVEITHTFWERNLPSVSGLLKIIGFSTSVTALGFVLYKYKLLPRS
In kind it is functional.

Assay [4] deals with Gamma-aminobutyric acid receptor subunit alpha-1 (Rattus norvegicus, UniProt P62813).
The target of another assay is D(3) dopamine receptor (Homo sapiens, UniProt P35462).
Assay [5] has as its target Gamma-aminobutyric acid receptor subunit alpha-1/alpha-2/beta-2/gamma-2 (Homo sapiens, UniProt P14867+P18507+P47869+P47870). In kind it is protein-complex assay.
For assay [6], the target named is Sodium-dependent dopamine transporter (Homo sapiens, UniProt Q01959).
In assay [7] the target is T4, Alpha-2A adrenergic receptor (Homo sapiens, UniProt P08913).
T4 sequence (P08913 whole entry): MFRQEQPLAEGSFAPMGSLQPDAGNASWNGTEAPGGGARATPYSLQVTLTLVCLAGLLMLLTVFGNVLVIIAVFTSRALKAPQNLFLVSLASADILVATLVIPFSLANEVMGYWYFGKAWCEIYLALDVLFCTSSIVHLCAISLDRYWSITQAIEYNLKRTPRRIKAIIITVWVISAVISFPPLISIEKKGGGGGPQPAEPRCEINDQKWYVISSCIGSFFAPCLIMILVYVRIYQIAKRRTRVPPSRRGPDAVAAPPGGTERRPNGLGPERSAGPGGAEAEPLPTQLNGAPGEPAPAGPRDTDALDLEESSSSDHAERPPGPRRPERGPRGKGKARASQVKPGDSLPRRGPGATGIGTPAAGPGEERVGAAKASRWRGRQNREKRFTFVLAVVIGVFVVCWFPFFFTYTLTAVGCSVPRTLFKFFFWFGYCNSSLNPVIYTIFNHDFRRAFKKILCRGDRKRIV

The target of assay [8] is T4, Alpha-2A adrenergic receptor. In kind it is functional, cell-based.
The target in assay [9] is Kappa-type opioid receptor (Homo sapiens, UniProt P41145).
The target in assay [10] is Glutamate receptor ionotropic, NMDA 1 (Rattus norvegicus, UniProt P35439).
For the next assay, the target named is Cannabinoid receptor 1 (Homo sapiens, UniProt P21554). Format: functional, cell-based.
For assay [11], the target named is T5, 5-hydroxytryptamine receptor 2C (Homo sapiens, UniProt P28335).
T5 sequence (P28335 whole entry): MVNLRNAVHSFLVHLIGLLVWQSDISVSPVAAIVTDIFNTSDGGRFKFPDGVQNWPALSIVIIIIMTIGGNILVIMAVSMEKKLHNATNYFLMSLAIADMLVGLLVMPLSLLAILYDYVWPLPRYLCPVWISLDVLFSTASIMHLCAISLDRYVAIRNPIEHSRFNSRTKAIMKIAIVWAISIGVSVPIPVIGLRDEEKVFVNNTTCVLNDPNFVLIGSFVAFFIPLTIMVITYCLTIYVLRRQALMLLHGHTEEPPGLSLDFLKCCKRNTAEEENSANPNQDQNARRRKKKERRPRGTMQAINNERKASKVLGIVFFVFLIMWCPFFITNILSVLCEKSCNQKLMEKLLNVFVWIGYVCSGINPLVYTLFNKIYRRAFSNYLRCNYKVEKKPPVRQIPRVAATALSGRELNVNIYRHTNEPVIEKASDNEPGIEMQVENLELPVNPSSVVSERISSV

AC50 data for five compounds are collected here from ChEMBL document CHEMBL5291721, “A preclinical secondary pharmacology resource illuminates target-adverse drug reaction associations of marketed drugs” (Nat Commun, 2023).
Further: assay procedure not described here.

Chain of Histamine H3 receptor (Q9Y5N1 whole entry): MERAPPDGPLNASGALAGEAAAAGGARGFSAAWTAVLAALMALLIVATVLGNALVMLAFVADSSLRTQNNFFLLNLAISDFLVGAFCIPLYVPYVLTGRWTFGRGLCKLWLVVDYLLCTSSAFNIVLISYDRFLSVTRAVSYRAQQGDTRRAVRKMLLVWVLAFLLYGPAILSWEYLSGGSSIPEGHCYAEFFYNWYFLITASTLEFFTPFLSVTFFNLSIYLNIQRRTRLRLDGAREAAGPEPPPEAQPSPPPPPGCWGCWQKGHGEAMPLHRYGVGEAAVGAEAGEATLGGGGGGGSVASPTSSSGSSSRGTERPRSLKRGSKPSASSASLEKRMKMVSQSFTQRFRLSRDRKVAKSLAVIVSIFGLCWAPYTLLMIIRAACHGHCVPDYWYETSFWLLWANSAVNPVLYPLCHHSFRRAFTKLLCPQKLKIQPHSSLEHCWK
Chain of Gamma-aminobutyric acid receptor subunit alpha-1/alpha-2/beta-2/gamma-2 (P14867 whole entry): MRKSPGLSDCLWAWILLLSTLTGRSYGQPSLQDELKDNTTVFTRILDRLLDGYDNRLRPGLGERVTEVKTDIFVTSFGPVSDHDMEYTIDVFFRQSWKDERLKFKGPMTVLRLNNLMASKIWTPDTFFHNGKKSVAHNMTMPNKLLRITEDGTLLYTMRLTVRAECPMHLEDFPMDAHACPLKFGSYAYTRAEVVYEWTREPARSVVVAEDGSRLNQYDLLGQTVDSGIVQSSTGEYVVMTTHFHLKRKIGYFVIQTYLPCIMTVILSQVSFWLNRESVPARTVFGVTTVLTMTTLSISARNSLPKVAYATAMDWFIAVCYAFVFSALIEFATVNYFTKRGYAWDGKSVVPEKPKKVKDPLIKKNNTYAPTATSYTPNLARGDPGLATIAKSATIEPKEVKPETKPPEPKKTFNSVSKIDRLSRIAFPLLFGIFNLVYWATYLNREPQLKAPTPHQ
Chain of Gamma-aminobutyric acid receptor subunit alpha-1/alpha-2/beta-2/gamma-2 (P47870 whole entry): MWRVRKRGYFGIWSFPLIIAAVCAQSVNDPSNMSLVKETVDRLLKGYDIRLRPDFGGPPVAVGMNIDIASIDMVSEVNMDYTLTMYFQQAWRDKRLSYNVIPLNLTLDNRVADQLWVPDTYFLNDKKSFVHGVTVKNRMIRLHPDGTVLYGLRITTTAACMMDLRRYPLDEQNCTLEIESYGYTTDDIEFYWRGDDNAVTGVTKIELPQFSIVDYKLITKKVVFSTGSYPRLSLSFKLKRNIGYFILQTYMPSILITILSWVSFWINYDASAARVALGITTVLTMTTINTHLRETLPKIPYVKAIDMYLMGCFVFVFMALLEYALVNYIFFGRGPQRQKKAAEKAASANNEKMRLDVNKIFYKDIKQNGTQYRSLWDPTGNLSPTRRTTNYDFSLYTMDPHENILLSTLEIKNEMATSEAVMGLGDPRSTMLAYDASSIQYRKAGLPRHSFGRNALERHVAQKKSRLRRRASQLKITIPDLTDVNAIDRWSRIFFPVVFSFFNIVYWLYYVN
Chain of Gamma-aminobutyric acid receptor subunit alpha-1/alpha-2/beta-2/gamma-2 (P18507 whole entry): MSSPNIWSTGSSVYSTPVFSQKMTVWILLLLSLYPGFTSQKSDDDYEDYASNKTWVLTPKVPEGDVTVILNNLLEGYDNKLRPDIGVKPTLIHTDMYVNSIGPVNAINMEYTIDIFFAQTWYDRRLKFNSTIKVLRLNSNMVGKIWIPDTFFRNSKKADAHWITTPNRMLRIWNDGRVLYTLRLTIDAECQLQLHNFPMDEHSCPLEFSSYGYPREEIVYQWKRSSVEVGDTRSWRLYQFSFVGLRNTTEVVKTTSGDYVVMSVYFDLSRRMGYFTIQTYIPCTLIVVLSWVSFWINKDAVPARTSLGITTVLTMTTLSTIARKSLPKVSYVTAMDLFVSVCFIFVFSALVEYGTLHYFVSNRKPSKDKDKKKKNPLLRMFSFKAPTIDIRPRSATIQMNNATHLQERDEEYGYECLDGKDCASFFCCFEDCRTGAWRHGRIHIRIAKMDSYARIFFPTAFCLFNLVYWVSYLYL
Chain of Gamma-aminobutyric acid receptor subunit alpha-1/alpha-2/beta-2/gamma-2 (P47869 whole entry): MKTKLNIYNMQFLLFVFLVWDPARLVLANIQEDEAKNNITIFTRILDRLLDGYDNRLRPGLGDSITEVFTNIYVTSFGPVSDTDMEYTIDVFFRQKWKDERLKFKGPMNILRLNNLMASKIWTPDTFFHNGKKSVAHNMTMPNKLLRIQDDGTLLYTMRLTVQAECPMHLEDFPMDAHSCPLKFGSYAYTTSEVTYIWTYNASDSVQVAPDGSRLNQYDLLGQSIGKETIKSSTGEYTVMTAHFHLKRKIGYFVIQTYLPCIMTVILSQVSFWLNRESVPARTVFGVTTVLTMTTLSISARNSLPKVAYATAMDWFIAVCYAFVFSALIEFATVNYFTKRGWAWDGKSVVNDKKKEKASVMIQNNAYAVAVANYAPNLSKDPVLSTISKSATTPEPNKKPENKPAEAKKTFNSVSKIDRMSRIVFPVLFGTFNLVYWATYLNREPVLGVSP
Chain of Gamma-aminobutyric acid receptor subunit alpha-1 (P62813 whole entry): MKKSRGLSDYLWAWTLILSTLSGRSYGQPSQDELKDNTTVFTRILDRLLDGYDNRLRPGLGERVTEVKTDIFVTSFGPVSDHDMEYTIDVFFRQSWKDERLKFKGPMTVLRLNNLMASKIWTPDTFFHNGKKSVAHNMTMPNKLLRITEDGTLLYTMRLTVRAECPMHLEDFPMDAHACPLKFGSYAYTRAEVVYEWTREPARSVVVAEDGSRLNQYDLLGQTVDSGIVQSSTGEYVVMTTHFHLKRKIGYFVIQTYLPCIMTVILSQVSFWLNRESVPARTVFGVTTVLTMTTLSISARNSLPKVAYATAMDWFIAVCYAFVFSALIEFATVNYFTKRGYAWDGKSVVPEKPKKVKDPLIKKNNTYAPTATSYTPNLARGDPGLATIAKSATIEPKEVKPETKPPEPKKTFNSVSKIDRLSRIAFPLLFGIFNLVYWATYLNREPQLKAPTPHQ
Chain of D(3) dopamine receptor (P35462 whole entry): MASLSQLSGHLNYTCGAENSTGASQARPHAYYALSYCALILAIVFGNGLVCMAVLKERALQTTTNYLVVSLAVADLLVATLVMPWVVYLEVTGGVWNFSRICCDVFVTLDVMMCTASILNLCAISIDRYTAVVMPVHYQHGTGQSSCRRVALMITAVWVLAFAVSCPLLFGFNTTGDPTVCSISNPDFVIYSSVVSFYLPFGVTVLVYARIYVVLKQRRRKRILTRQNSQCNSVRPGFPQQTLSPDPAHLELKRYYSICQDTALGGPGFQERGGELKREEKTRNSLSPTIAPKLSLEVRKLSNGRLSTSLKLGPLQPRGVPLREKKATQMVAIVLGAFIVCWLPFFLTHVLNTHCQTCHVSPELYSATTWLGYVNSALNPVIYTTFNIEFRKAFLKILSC
Chain of Sodium-dependent dopamine transporter (Q01959 whole entry): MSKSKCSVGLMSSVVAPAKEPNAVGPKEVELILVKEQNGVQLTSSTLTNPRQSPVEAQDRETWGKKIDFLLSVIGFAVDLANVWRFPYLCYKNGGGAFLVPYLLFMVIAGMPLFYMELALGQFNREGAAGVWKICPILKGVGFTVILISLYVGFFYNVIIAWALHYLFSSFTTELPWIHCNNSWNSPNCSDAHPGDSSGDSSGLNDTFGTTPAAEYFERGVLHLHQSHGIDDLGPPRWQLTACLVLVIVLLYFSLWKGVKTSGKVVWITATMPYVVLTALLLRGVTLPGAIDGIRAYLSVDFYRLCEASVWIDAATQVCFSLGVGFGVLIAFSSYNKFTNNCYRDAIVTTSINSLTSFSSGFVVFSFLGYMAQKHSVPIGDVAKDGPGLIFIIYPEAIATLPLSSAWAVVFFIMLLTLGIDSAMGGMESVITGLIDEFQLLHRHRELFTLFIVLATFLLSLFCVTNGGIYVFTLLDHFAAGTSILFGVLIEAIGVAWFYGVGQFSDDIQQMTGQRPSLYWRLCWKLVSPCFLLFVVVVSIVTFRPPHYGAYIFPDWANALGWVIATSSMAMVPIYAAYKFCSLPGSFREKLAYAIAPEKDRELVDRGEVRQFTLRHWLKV
Chain of Kappa-type opioid receptor (P41145 whole entry): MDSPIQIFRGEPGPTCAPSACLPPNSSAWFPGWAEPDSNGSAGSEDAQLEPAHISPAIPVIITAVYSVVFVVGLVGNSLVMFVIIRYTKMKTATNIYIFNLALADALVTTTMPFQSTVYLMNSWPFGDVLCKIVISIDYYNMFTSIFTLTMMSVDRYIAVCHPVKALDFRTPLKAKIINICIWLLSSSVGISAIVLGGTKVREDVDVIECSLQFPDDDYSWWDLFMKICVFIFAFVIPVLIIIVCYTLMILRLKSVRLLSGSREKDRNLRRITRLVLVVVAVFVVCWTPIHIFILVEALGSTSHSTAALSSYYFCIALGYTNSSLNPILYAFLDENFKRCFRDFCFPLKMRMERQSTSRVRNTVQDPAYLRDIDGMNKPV
Chain of Cannabinoid receptor 1 (P21554 whole entry): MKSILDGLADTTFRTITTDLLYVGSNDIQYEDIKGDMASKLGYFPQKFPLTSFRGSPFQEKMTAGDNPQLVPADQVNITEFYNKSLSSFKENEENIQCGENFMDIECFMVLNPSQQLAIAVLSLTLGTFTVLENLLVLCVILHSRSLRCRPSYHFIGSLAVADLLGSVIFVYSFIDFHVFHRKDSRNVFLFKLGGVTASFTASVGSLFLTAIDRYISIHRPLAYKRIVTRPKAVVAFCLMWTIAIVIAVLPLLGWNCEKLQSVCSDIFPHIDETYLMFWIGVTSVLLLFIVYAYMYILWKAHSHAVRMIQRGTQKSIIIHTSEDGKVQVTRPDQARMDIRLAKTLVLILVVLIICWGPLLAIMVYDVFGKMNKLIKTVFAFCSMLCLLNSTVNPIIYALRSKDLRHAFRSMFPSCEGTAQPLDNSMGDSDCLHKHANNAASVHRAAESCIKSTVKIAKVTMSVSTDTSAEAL

Take `O=C(O)c1cccc(-c2noc(-c3ccccc3F)n2)c1`: the AC50 (commonly the midpoint of the concentration-response curve, whichever way the signal moves) was over 30 µM at Histamine H3 receptor; over 30 µM in assay [1]; over 10 µM in assay [2]; 5.3 µM in assay [3]; over 30 µM in assay [4]; over 30 µM at D(3) dopamine receptor. Also, the AC50 in assay [5], in assay [6] and in [7] was over 30 µM each time.
`Cc1c(O)cccc1C(=O)N[C@@H](CSc1ccccc1)[C@H](O)CN1C[C@H]2CCCC[C@H]2C[C@H]1C(=O)NC(C)(C)C`: the AC50 (on Histamine H3 receptor; in assay [1]; in [4]; at D(3) dopamine receptor; in assay [5]; in assay [7]) was over 30 µM each time.
Regarding `Nc1nc(-n2cc(C(=O)O)c(=O)c3cc(F)c(N4CC(O)C4)c(Cl)c32)c(F)cc1F` [DELAFLOXACIN], the AC50 (at Histamine H3 receptor; in assay [1]; in assay [4]; on D(3) dopamine receptor; in assay [5]; in [7]) was over 30 µM throughout.
In the case of `O=C(Nc1ccccc1)OCC(CN1CCCCC1)OC(=O)Nc1ccccc1` (stereo not given) [DIPERODON], the AC50 at Histamine H3 receptor is over 30 µM; in assay [1] it was over 30 µM; in assay [2], over 10 µM; in assay [3] it was over 10 µM; in assay [8], over 10 µM; at D(3) dopamine receptor it was 23.5 µM. In addition, the AC50 is over 30 µM in assay [5]; 1420 nM in assay [9]; 6.69 µM in [6]; over 30 µM in assay [7]; over 10 µM in assay [10]; over 30 µM on Cannabinoid receptor 1. The AC50 in assay [11] was over 10 µM.
For the compound `CC1=NN(c2ccccc2)C(=O)C1` [EDARAVONE], the AC50 is over 30 µM at Histamine H3 receptor; over 30 µM in assay [1]; over 30 µM in assay [4]; 10.9 µM on D(3) dopamine receptor; over 30 µM in [5]; over 30 µM in [7].
